In ChEMBL document CHEMBL4673325, “Identification of 2-substituted pyrrolo[1,2-b]pyridazine derivatives as new PARP-1 inhibitors” (Bioorg Med Chem Lett, 2021):

Columns and labels:
[1] = target: Poly [ADP-ribose] polymerase 1 (Homo sapiens, UniProt P09874); assay: Inhibition of PARP-1 (unknown origin)
Homo sapiens = organism: Homo sapiens; assay: Selectivity index, ratio of IC50 for PARP-2 (unknown origin) to IC50 for PARP-1 (unknown origin)
[2] = target: Poly [ADP-ribose] polymerase 2 (Homo sapiens, UniProt Q9UGN5); assay: Inhibition of PARP-2 (unknown origin)
MDA-MB-436 [3] = assay: Antiproliferative activity against BRCA1 deficient human MDA-MB-436 cells; type: functional
[4] = Antiproliferative activity against BRCA2 deficient chinese hamster V-C8 cells; type: functional, Cricetulus griseus
MDA-MB-436 [5] = assay: Antitumor activity against human MDA-MB-436 cells harboring BRCA1 mutation xenografted in mouse assessed as tumor growth inhibition administered orally for 21 days; type: functional; conditions: time 21.0 day

Poly [ADP-ribose] polymerase 2, sequence (Q9UGN5 whole entry): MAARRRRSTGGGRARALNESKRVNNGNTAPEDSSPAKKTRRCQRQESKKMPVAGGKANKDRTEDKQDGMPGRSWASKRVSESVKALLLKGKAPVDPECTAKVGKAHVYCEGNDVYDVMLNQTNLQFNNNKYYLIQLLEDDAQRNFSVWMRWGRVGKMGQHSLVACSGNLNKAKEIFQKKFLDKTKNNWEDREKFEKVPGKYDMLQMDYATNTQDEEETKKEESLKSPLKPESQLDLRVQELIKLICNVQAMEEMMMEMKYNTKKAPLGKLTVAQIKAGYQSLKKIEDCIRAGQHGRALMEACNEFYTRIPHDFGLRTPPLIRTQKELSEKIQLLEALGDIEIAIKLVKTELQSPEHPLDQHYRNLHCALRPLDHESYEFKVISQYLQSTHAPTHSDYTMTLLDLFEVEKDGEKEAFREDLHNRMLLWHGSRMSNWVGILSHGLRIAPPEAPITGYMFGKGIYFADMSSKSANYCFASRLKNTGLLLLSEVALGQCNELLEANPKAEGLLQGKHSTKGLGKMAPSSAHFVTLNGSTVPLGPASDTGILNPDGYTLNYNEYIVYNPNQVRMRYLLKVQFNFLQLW
Poly [ADP-ribose] polymerase 1, sequence (P09874 whole entry): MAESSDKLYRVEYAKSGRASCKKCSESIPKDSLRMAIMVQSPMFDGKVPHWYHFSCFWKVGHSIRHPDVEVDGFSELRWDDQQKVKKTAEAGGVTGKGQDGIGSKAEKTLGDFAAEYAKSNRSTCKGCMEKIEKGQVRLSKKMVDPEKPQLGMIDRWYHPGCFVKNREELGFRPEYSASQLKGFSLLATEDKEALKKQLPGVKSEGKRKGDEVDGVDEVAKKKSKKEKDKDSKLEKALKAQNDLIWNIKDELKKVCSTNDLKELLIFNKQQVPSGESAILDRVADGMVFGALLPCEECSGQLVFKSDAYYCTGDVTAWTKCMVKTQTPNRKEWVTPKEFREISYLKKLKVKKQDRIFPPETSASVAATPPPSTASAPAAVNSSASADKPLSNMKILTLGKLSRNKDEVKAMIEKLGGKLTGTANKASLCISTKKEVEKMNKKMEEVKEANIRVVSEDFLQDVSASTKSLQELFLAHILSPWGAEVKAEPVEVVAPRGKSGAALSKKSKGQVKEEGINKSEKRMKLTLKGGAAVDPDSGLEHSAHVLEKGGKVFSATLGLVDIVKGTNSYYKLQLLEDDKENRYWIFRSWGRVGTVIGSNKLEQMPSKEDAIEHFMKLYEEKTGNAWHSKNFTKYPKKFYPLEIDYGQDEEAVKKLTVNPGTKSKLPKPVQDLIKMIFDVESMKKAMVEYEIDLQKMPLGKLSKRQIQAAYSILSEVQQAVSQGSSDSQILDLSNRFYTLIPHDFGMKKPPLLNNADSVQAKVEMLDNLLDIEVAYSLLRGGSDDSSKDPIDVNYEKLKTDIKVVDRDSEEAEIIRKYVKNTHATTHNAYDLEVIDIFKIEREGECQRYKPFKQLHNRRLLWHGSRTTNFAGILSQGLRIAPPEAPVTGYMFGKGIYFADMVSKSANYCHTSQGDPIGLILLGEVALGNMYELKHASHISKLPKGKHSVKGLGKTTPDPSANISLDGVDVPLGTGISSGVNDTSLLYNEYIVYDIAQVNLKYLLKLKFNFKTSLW

Compound	IC50 [1]	Ratio IC50 (Homo sapiens)	IC50 [2]	CC50 (MDA-MB-436 [3]; Homo sapiens, MDA-MB-436)	CC50 ([4]; Cricetulus griseus, V-C8)	CC50 (MDA-MB-436 [3])	CC50 [4]	TGI (MDA-MB-436 [5])
COC1CCN(C(=O)c2ccc(-c3ccc4c(Cl)cc(C(N)=O)n4n3)cc2)C1 (centres undefined)	0.362 µM	4.74	1.71 µM	9.64 µM				
NC(=O)c1cc(Cl)c2ccc(-c3ccc(CN4CCN(c5ccc(C(F)(F)F)cc5)CC4)cc3)nn12	3.33 µM	0.13	0.445 µM	8.09 µM	> 10 µM			
O=C(c1cc(Cc2n[nH]c(=O)c3ccccc23)ccc1F)N1CCN(C(=O)C2CC2)CC1 [OLAPARIB]						0.0114 µM	0.4 µM	
CN(C)C1CCN(Cc2ccc(-c3ccc4c(Cl)cc(C(N)=O)n4n3)cc2)CC1	0.818 µM	1.4	1.13 µM	5.48 µM	2.78 µM			
CN1CCc2sc(-c3ccc4c(Cl)cc(C(N)=O)n4n3)cc2C1	0.157 µM	2.3	0.363 µM	3.05 µM	2.64 µM			
NC(=O)c1cc(Cl)c2ccc(-c3ccc(F)c(C(=O)N4CCN(C(=O)C5CC5)CC4)c3)nn12	0.166 µM	11.6	1.92 µM		7.03 µM			
NC(=O)c1cc(Cl)c2cc(-c3cc4c(s3)CNCC4)cnn12								Dose-dependent effect
NC(=O)c1cc(Cl)c2ccc(-c3ccc(CN4CCNCC4)cc3)nn12	0.627 µM	3.7	2.33 µM	9.67 µM				
CN1CCc2cc(-c3ccc4c(Cl)cc(C(N)=O)n4n3)sc2C1	0.141 µM	2.7	0.382 µM	2.58 µM	3.62 µM			
COC1CCN(C(=O)c2ccc(-c3ccc4c(Cl)cc(C(N)=O)n4n3)cc2)CC1	3.51 µM	1.28	4.51 µM		4.42 µM			
CN(C)Cc1ccc(-c2ccc3c(Cl)cc(C(N)=O)n3n2)cc1	0.0933 µM	7.5	0.705 µM	0.687 µM	6.2 µM			

The next lines start with results.

IC50 [1]	Ratio IC50 (Homo sapiens)	IC50 [2]	Compound	CC50 (MDA-MB-436 [3]; Homo sapiens, MDA-MB-436)	CC50 ([4]; Cricetulus griseus, V-C8)	CC50 (MDA-MB-436 [3])	CC50 [4]	TGI (MDA-MB-436 [5])
0.502 µM	2	1.01 µM	CC(C)CC(=O)N1CCN(C(=O)c2ccc(-c3ccc4c(Cl)cc(C(N)=O)n4n3)cc2)CC1	3.84 µM	5.75 µM			
0.34 µM	3	1.01 µM	NC(=O)c1cc(Cl)c2ccc(-c3ccc(C(=O)N4CCNCC4)cc3)nn12	8.09 µM	> 10 µM			
0.432 µM	2.6	1.12 µM	NC(=O)c1cc(Cl)c2ccc(-c3ccc(CN4CCCC4)cc3)nn12	5.4 µM	2.15 µM			
0.114 µM	8.9	1.64 µM	COC1CCN(C(=O)c2ccc(-c3ccc4c(Cl)cc(C(N)=O)n4n3)c(F)c2)CC1					
0.433 µM	5.1	2.2 µM	CCN(CC)Cc1ccc(-c2ccc3c(Cl)cc(C(N)=O)n3n2)cc1	3.73 µM	3.51 µM			
1.08 µM	0.92	0.997 µM	NC(=O)c1cc(Cl)c2ccc(-c3ccc(CN4CCN(C5CC5)CC4)cc3)nn12	75.2 µM	> 10 µM			
1.03 µM	0.97	1 µM	CC(C)(C)C1NCCc2cc(-c3ccc4c(Cl)cc(C(N)=O)n4n3)sc21 (centres undefined)	1.46 µM	2.04 µM			
0.443 µM	2.5	1.1 µM	NC(=O)c1cc(Cl)c2ccc(-c3ccc(C(=O)N4CCN(C(=O)C5CC5)CC4)cc3)nn12	9.54 µM	2.48 µM			
0.219 µM	10.7	2.32 µM	NC(=O)c1cc(Cl)c2ccc(-c3ccc(C(=O)N4CCN(C(=O)C5CC5)CC4)cc3F)nn12	2.95 µM	2.31 µM			
0.369 µM	3.9	1.44 µM	CC(C)N1CCN(Cc2ccc(-c3ccc4c(Cl)cc(C(N)=O)n4n3)cc2)CC1	3.55 µM	2.7 µM			
0.249 µM	4.5	1.12 µM	CNCc1ccc(-c2ccc3c(Cl)cc(C(N)=O)n3n2)cc1	1.28 µM	2 µM			
0.00724 µM		0.209 µM	NC(=O)c1cc(Cl)c2ccc(-c3cc4c(s3)CCNC4)nn12	0.214 µM	1.33 µM			
0.661 µM	2.4	1.59 µM	COC1CCN(C(=O)c2ccc(-c3ccc4c(Cl)cc(C(N)=O)n4n3)c(F)c2)C1 (centres undefined)					
